Assay results as given in patent US20170313746A1, “Peptides Useful For Treating Cancer” (priority 2014, published 2017).
Entries after “also recorded” stand apart in the source; their conditions may differ. Non-standard residues stand in square brackets, D forms with d. Residues, ends and D or L forms follow the SMILES beside them. Phe(4-guanidino) = N=C(N)Nc1ccc(C[C@H](N)C(=O)O)cc1; Abu(4-SO3H) = N[C@@H](CCS(=O)(=O)O)C(=O)O

Experiments:
[1] = tested on: NCI-H460 human non-small-cell lung cancer cells; experiment: Cell killing alone or in combination with 2-deoxyglucose, alamarBlue; assay type: cell-based; conditions: 3.125 mmol 2-DOG
Experimental: NCI-H460 human non-small-cell lung cancer cells were contacted with HILR-025 or HILR-D-07 alone or in combination with 3.125 mmol 2-DOG and cell survival was determined using AlamaBlue® cell viability reagent (Life Technologies, Inc.) in accordance with the manufacturer's instructions.

[2] = tested on: Lactate Dehydrogenase A [LDHA]; experiment: LDH activity assay on lysates of treated NCI-H460 cells; conditions: higher concentrations, particularly later time point
Experimental: Therefore a BCA assay was conducted to estimate the total amount of protein present in each LDH assay lysate and this was used to normalise the enzyme activity data. As an indication of cell viability, an Alamar blue assay was also carried out at both timepoints, to serve as an additional point of reference.
1) NCI-H460 cells were grown in Ham's F12 media supplemented with 10% FBS. 2) Cells were harvested and seeded into 96-well plates at either 500 cells/well (for the 96 h timepoint) or 5000 cells/well for the 24 h timepoint. […] 6) At the end of the assay (24 or 96 h), Alamar blue 10% (v/v) was added to one set of plates, incubated for a further 4 hours, and fluorescent product detected using the BMG FLUOstar plate reader. […] 10) LDH activity was measured in the cleared lysates using an LDH activity kit (Abeam, ab102526). 11) After preparation of the LDH activity assay reactions, according to the manufacturer's instructions, absorbance at 450 nm was measured at the initial time to determine (A450)initial 12) Further absorbance readings were taken at 3 minute intervals for up to 15 minutes.
14) The change in measurement from Tinitial to Tfinal for each sample was calculated: 11A450=(A450)final−(A450)initial 15) The NADH standard curve was used to interpolate the 11A450 for each sample to determine the amount of NADH generated by the kinase assay between Tinitial and Tfinal (B). […]

[3] = tested on: NCI-H460 cells; experiment: HILR-001 with or without 30 nM Olaparib, alamarBlue and CellTiter-Glo time course; assay type: cell-based, human
Experimental: Four concentrations of HILR-001 were tested in the presence or absence of 30 nM Olaparib; At each time point cell viability was measured by two assay readouts, alamarBlue® and CellTiter-Glo. Conversion of alamarBlue® to a fluorescent product serves as a readout of the metabolic activity of cells, whereas CellTiter-Glo is based on quantification of the ATP present.
1) NCI-H460 cells were grown in Ham's F12 media supplemented with 10% FBS. 2) Cells were harvested and seeded into 96-well plates at 500 cells/well. 3) HILR-001 was made up from a 10 mM stock solution and added directly to cells in doubling dilutions starting at 200 μM. Olaparib was made up from a 10 mM stock solution and added directly to cells at 30 nM. The total final DMSO concentration was 0.25%. 4) Cells were grown with compound for 24, 48, 72 or 96 hours at 37° C. 5% CO2 in a humidified atmosphere. 5) AlamarBlue® 10% (v/v) was then added and incubated for a further 4 hours, and fluorescent product detected using the BMG FLUOstar plate reader. 6) On duplicate plates the media was removed from the cells, CellTiter-Glo was diluted in PBS (1:10) and 100 μl added to the cells. 7) Plates were mixed on an orbital shaker for 2 minutes and incubated for a further 10 minutes at room temperature. Luminescent signal was then measured using the BMG FLUOstar plate reader.

[4] = tested on: human cancer cell lines; conditions: cited from earlier work
[5] = tested on: NCI-H460 cells; experiment: NCI-H460 cell viability, alamarBlue (resazurin), 96 hours; assay type: cell-based, human; conditions: FIG. 13
Experimental: 1) NCI-H460 cells were grown in Ham's F12 media supplemented with 10% FBS. 2) Cells were harvested and seeded into 96-well plates at 500 cells/well. 3) Compounds were made up from stock solutions and added directly to cells in doubling dilutions starting at 200 μM. Final DMSO concentration was 0.2%. 4) Cells were grown with compound for 96 hours at 37° C. 5% CO2 in a humidified atmosphere. 5) A resazurin dye composition (AlamarBlue® cell viability reagent (Life Technologies, Inc.)) 10% (v/v) was then added and incubated for a further 4 hours, and fluorescent product detected using the BMG FLUOstar plate reader. 6) Media only background readings were subtracted before data were analysed using a 4-parameter logistic equation in GraphPad Prism. The IC50 of HILR-30 was determined as 6 μM.
1) NCI-H460 cells were grown in Ham's F12 media supplemented with 10% FBS. 2) Cells were harvested and seeded into 96-well plates at 500 cells/well. 3) Olaparib was made up from stock solutions and added directly to cells in semi-log dilutions starting at 30 μM. Final DMSO concentration was 0.3%. […] 5) AlamarBlue® cell viability reagent (Life Technologies, Inc.) 10% (v/v) was then added and incubated for a further 4 hours, and fluorescent product detected using the BMG FLUOstar plate reader. 6) Data were analysed using a 4-parameter logistic equation in GraphPad Prism.

[6] = tested on: NCI-H460 human non-small cell lung cancer cells; conditions: cited from earlier work
[7] = 30 nM Olaparib with 50 μM HILR-001

CC(C)[C@@H]1NC(=O)[C@@H]2CCCN2C(=O)[C@H](CCCNC(=N)N)NC(=O)[C@@H]2CCCN2C(=O)CNC(=O)[C@H](CCCNC(=N)N)NC(=O)[C@@H]2CCCN2C(=O)[C@H](Cc2c[nH]c3ccccc23)NC(=O)[C@H](Cc2c[nH]c3ccccc23)NC(=O)[C@H](CCCNC(=N)N)NC(=O)[C@H](CCCNC(=N)N)NC(=O)[C@H](Cc2c[nH]c3ccccc23)NC(=O)[C@H](Cc2c[nH]c3ccccc23)NC(=O)[C@H](CCCNC(=N)N)NC(=O)[C@H](CCCNC(=N)N)NC(=O)[C@H](Cc2c[nH]c3ccccc23)NC(=O)[C@H](Cc2c[nH]c3ccccc23)NC1=O [HILR-025] (HELM PEPTIDE1{P.R.G.P.R.P.V.W.W.R.R.W.W.R.R.W.W}$PEPTIDE1,PEPTIDE1,1:R1-17:R2$$$V2.0)
cell killing ability with co-administration of 2-DOG [1]: enhanced | cell death during LDH study [2]: Significant cell death

CC(C)[C@@H]1NC(=O)[C@@H]2CCCN2C(=O)[C@H](CCCNC(=N)N)NC(=O)[C@@H]2CCCN2C(=O)CNC(=O)[C@H](CCCNC(=N)N)NC(=O)[C@@H]2CCCN2C(=O)[C@H](Cc2c[nH]c3ccccc23)NC(=O)[C@H](Cc2c[nH]c3ccccc23)NC(=O)[C@H](Cc2ccc(NC(=N)N)cc2)NC(=O)[C@H](Cc2ccc(NC(=N)N)cc2)NC(=O)[C@H](Cc2c[nH]c3ccccc23)NC(=O)[C@H](Cc2c[nH]c3ccccc23)NC(=O)[C@H](Cc2ccc(NC(=N)N)cc2)NC(=O)[C@H](Cc2ccc(NC(=N)N)cc2)NC(=O)[C@H](Cc2c[nH]c3ccccc23)NC(=O)[C@H](Cc2c[nH]c3ccccc23)NC1=O [HILR-030] (cyclo(PRGPRPVWW[Phe(4-guanidino)][Phe(4-guanidino)]WW[Phe(4-guanidino)][Phe(4-guanidino)]WW))
cell death during LDH study [2]: Significant cell death

cyclo-[Pro-Hca-Gly-Pro-Hca-Pro-Val-Trp-Trp-Gpa-Gpa-Trp-Trp-Gpa-Gpa-Trp-Trp] (cyclo(P[Abu(4-SO3H)]GP[Abu(4-SO3H)]PVWW[Phe(4-guanidino)][Phe(4-guanidino)]WW[Phe(4-guanidino)][Phe(4-guanidino)]WW)) [HILR-D-07]
cell killing ability with co-administration of 2-DOG [1]: enhanced

O=C(c1cc(Cc2n[nH]c(=O)c3ccccc23)ccc1F)N1CCN(C(=O)C2CC2)CC1 [Olaparib, 4-[3-(4-cyclopropanecarbonylpiperazine-1-carbonyl)-4-fluorobenzyl]-2H-phthalazin-1-one]
ATP levels (CellTiter-Glo) [3, 7]: partially restored; also recorded: partially reverses | HILR-001-mediated cell death (alamarBlue) [3, 7]: reversed | ATP levels or cancer cell death ([3]; 30 nM Olaparib with 100 μM and 200 μM HILR-001): did not affect

Cyc-[AAAGGGPRGPRPGGGAAA] (cyclic; Cyclic peptide; (1)..(18) cyclic peptide) [SEQ ID NO: 6]
activity of PRGPRP cyclic peptides with non-amphiphilic backbone [4]: INACTIVE

Cyc-[Gly-Asp-Glu-Val-NMeAsp-Sarc-Val-Trp-Trp-Arg-Arg-Trp-Trp-Arg-Arg-Trp-Trp] [HILR-D-01]
cell-killing of NCI-H460 cells [5]: weak but significant dose-related cell-killing; also recorded: mild but significant killing

Cyc-[PRGPRPVKLALKLALKLAL] (cyclic; cyclic peptide; (1)..(19) cyclic peptide) [THR52]
killing NCI-H460 human non-small cell lung cancer cells [6]: (“THR52”) INACTIVE

Cyc-[PRGPRPVKLALKLALKFP] (cyclic; cyclic peptide; (1)..(18) cyclic peptide) [THR53]
killing NCI-H460 human non-small cell lung cancer cells [6]: (“THR5”) ACTIVE

Cyc-[GGGGGGPRGPRPGGGGGG] (cyclic; cyclic peptide; (1)..(18) cyclic peptide) [SEQ ID NO: 7]
activity of PRGPRP cyclic peptides with non-amphiphilic backbone [4]: INACTIVE

CC(C)C[C@@H]1NC(=O)[C@H](C)NC(=O)[C@H](C(C)C)NC(=O)[C@@H]2CCCN2C(=O)[C@H](CCCNC(=N)N)NC(=O)[C@@H]2CCCN2C(=O)CNC(=O)[C@H](CCCNC(=N)N)NC(=O)[C@@H]2CCCN2C(=O)[C@H](CC(C)C)NC(=O)[C@H](C)NC(=O)[C@H](CC(C)C)NC(=O)[C@H](CCCCN)NC(=O)[C@H](CC(C)C)NC(=O)[C@H](C)NC(=O)[C@H](CC(C)C)NC(=O)[C@H](CCCCN)NC1=O [HILR-001] (HELM PEPTIDE1{P.R.G.P.R.P.V.A.L.K.L.A.L.K.L.A.L}$PEPTIDE1,PEPTIDE1,1:R1-17:R2$$$V2.0)
killing NCI-H460 human non-small cell lung cancer cells [6]: (“THR54”) ACTIVE

Cyc-[AAGPGGPRGPRPGGPGAA] (cyclic; cyclic peptide; (1)..(18) cyclic peptide) [SEQ ID NO: 9]
activity of PRGPRP cyclic peptides with non-amphiphilic backbone [4]: INACTIVE
